Data: US20110046070A1, “GENE EXPRESSION INHIBITOR SELECTIVE FOR MATRIX METALLOPROTEINASE-9 GENE” (priority 2008, published 2011)

Tests used:
[1] = tested on: human uterine cervix cancer HeLa cells; experiment: Wound-healing migration assay, HeLa; assay type: cell-based; settings: 48 hours after the damage, various concentrations
Procedure: A human breast cancer MDA-MB-231 cell strain was used. The cells were cultured at 37° C. in a humid environment containing 5% CO^2 in an RPMI1640 medium (Sigma-Aldrich Corp., St. Louis, Mo., USA) supplemented with 100 μg/ml streptomycin, 100 units/ml penicillin and 10% fetal bovine serum (FBS) (Sigma-Aldrich Corp.). Human uterine cervix cancer HeLa cells were cultured in a Dulbecco's modified Eagle medium (DMEM, Invitrogen Life Technologies, Corp., Carlsbad, Calif.) containing 10% FBS and 2 mM L-glutamine.
To assay cellular migration in the process of wound healing, 3×10^5 cells were inoculated to each well of an 8-well chamber slide, and the cell layer was damaged using a plastic micropipette when the cells reached confluence. The medium and debris were removed by suction, and 100 μl of a fresh medium containing various polyamides was replaced therefor. 48 hours after the damage, the cells were fixed with Diff-Quik solution (SYSMEX INTERNATIONAL REAGENTS CO., LTD., Kobe, Japan), then stained, and photographed using a phase-contrast microscope.

HeLa cells [2] = experiment: Invasion assay into matrigel, HeLa; assay type: cell-based, human; settings: various concentrations
Procedure: Cell invasion assay was conducted using a 24-well cell culture BioCoat matrigel invasion chamber (BD Biosciences, Discovery Labware, Bedford, Mass., USA). MDA-MB-231 cells (1×10^3 cells/well) or HeLa cells (1×10^3 cells/well) were suspended in an RPMI1640 or DMEM medium containing 0.1% FBS and added to the upper chamber. An RPMI1640 or DMEM medium containing 5% FBS was added to the lower chamber. Then, the cells were cultured at 37° C. for 22 hours in a 5% CO2 environment. Noninvasive cells remaining on the membrane were wiped off using a cotton swab. Invasion cells were fixed and stained with a Diff-Quik kit. The number of cells invading the membrane was determined in mean±standard deviation from a total of 3 membranes by counting in 10 fields of view per membrane using an optical microscope (200× magnification).

[3] = tested on: MMP-9 mRNA in MDA-MB-231 cells; experiment: Real-time RT-PCR assay (mRNA expression assay); assay type: cell-based, human; settings: 48 hours, MDA-MB-231, vs DMSO control, normalized to GAPDH
Procedure: MDA-MB-231 cells were treated with each polyamide of the present invention at various concentrations. 48 hours after the treatment, cell fractions were subjected to RNA separation using a TRIzol reagent (Invitrogen Life Technologies, Corp.) according to the manufacturer's manual. RNA was treated with DNase prior to cDNA synthesis. Complementary DNA strands were synthesized by reverse transcription using SuperScript™ First-Strand kit (Invitrogen Life Technologies, Corp.). In real-time RT-PCR (Thermal cycler Dice Real Time system TP800, Takara Bio Inc., Japan), SYBR Premix Ex Taq Kit (Takara Bio Inc.) was used. Primers for HMMP9AP1 (forward, 5′-[…]-3′, SEQ ID NO: 12; reverse 5′-[…]-3′, SEQ ID NO: 13; 236 bp) and internal standard human endogenous glyceraldehyde-3-phosphate dehydrogenase (GADPH; forward, 5′-[…]-3′, SEQ ID NO: 14; reverse, 5′-TGGTGAAGACGCCAGTGGA-3′, SEQ ID NO: 15; 138 bp) were used. Moreover, primers for HMMP9NFKκβ (forward, 5′-[…]-3′, SEQ ID NO: 16; reverse, 5′-[…]-3′, SEQ ID NO: 17; 236 bp) and internal standard human endogenous glyceraldehyde-3-phosphate dehydrogenase (GADPH; forward, 5′-[…]-3′, SEQ ID NO: 18; reverse, 5′-TGGTGAAGACGCCAGTGGA-3′, SEQ ID NO: 19; 138 bp) were used. 25 μl of two-step RT-PCR mixture consists of 12.5 μl of SYBR Premix Ex TAq, 0.5 μl each of forward and reverse primers, 10.5 μl of RNase-free water and 1 μl of template cDNA. The real-time cycle conditions were performed by a reaction system involving 95° C. for 10 seconds, 95° C. for 5 seconds and 60° C. for 30 seconds. The quantification of the MMP-9 gene was normalized by comparison with GAPDH expression.

[4] = tested on: MMP-9 protein in MDA-MB-231 cells; experiment: Western blotting analysis (protein assay); assay type: cell-based, human; settings: MDA-MB-231, 48 hours, various concentrations, vs DMSO control
Procedure: MDA-MB-231 cells were treated with the polyamide of the present invention at various concentrations. 48 hours after the treatment, the cells were collected, and the total cell lysate was prepared into an extraction buffer containing a protease inhibition cocktail (Boehringer Ingelheim GmbH, Germany) containing 50 mM Tris-HCl, 150 mM NaCl, 10 mM EDTA and 1% Triton-X. Homogenates were centrifuged at 15,000×g at 4° C. for 10 minutes. The supernatants were collected, and protein concentrations were measured. The protein sample (10 μg) was electrophoresed on NuPAGE+™ 10% Bis-Tris gel (Invitrogen Life Technologies, Corp.) and transferred to a PVDF (polyvinylidene difluoride) membrane (Millipore, Bedford, Mass.). The PVDF membrane was incubated overnight with rabbit anti-MMP-9 polyclonal antibodies (Calbiochem (registered trademark) Biosciences, Inc. La Jolla, Calif.) (1:500) obtained from Calbiochem (registered trademark). The PVDF membrane was washed three times with a Tris buffer containing 0.2% Tween 20. The immunoconjugated proteins were identified through reaction with peroxidase-conjugated goat antibodies against rabbit IgG (MP Biomedicals, Inc.) and subsequently amplified by chemiluminescence detection (Amersham, Piscataway, N.J.).

MDA-MB-231 cells = experiment: Growth inhibition assay, MDA-MB-231; assay type: cell-based, human; settings: MDA-MB-231, 0 μM to 30 μM, 72 hours, WST-8
Procedure: (§1) Cell growth inhibition test was conducted using MDA-MB-231 and HeLa cells. The HeLa cells were inoculated at a concentration of 2500 cells/well to a 96-well microtiter plate and incubated for 24 hours in 100 μl of Dulbecco's modified Eagle medium (DMEM) containing 10% fetal bovine serum (Invitrogen). Then, after medium replacement, the cells were cultured for 72 hours in a medium supplemented with 10% fetal bovine serum containing 0 μM to 30 μM (0 μM, 0.3 μM, 1 μM, 3 μM, 10 μM and 30 μM) polyamide HMMP9NFκβ, and 10 μl of live cell counting reagent SF (Nacalai Tesque, Inc.) was added thereto, followed by 2-hour color reaction. Absorbance was measured at 450 nm using an ARVO microtiter plate reader. This experiment was conducted by modified MTT assay (WST-8 ™: Nacalai Tesque, Inc.) using water-soluble formazan.

HeLa cells [5] = experiment: Growth inhibition assay, HeLa; assay type: cell-based, human; settings: 0 μM to 30 μM, 72 hours, WST-8
Procedure: as §1

Compound	migration of HeLa cells [1]	invasion of HeLa cells into matrigel (HeLa cells [2])	decrease of the expression level of MMP-9 mRNA ([3]; 0.3 μM) [%]	decrease of the expression level of MMP-9 mRNA ([3]; 1 μM) [%]	decrease of the expression level of MMP-9 mRNA ([3]; 3 μM) [%]	decrease of the expression level of MMP-9 mRNA ([3]; 10 μM) [%]	expression of MMP-9 protein [4]	number of live cells (growth inhibition) (MDA-MB-231 cells)	number of live cells (growth inhibition) (HeLa cells [5])
CC(=O)Nc1cn(C)c(C(=O)Nc2cc(C(=O)NCCC(=O)Nc3cn(C)c(C(=O)Nc4cc(C(=O)Nc5cc(C(=O)NCCCC(=O)Nc6cn(C)c(C(=O)Nc7cn(C)c(C(=O)Nc8cc(C(=O)NCCC(=O)Nc9cn(C)c(C(=O)Nc%10cc(C(=O)NCCC(=O)NCCCN(C)C)n(C)c%10)n9)n(C)c8)n7)n6)n(C)c5)n(C)c4)n3)n(C)c2)n1 [HMMP9AP1]	inhibited the migrations	inhibited the invasion activities	84	54	38	26	remarkably inhibited	decreased the number of live cells	decreased the number of live cells
CC(=O)Nc1cc(C(=O)Nc2cc(C(=O)NCCC(=O)Nc3cc(C(=O)Nc4cc(C(=O)NCCCC(=O)Nc5cn(C)c(C(=O)Nc6cn(C)c(C(=O)NCCC(=O)Nc7cc(C(=O)Nc8cc(C(=O)NCCC(=O)NCCCN(C)C)n(C)c8)n(C)c7)n6)n5)n(C)c4)n(C)c3)n(C)c2)n(C)c1 [HMMP9NFκβ]	inhibit the migration of HeLa cells in a concentration-dependent manner	invasion into matrigel decreases in an HMMP9NFκβ concentration-dependent manner	86	68	40	28	decreased in an HMMP9NFκβ concentration-dependent manner	decreased the number of live cells in a concentration-dependent manner	decreased the number of live cells in a concentration-dependent manner
